Reference: PMC12794186, “Covalent Alkynylpyridopyrimidinones Targeting Cysteine 775 of the Epidermal Growth Factor Receptor Overcome Resistance to Current Therapies” (Journal of Medicinal Chemistry, 2025)
Like-named read-outs stand apart in the source and are kept apart here.

Columns and labels:
mLTC-EGFR = mLTC-EGFR (Homo sapiens, UniProt P00533, C797S/L858R/T790M); test: Intact protein mass spectrometry, covalent adduct formation; format: binding; settings: for Protein adduct formation: adduct stoichiometry by intact protein mass spectrometry; for covalent adduct formation, in words: intact protein mass spectrometry
wild-type EGFR (WT-EGFR) = biological target: T1, wild-type EGFR (WT-EGFR) (Homo sapiens, UniProt P00533); test: TR-FRET fluorescent probe displacement assay; format: binding
T1 construct: made in house; host or cells: SF9 insect cells (MultiBac)
Protocol: Compounds (dissolved to 100 mM in DMSO) were dispensed into black low volume 384 well assay plates (Corning) over a final concentration range of 100,000, 30,000, 10,000, 3000, 1000, 300, 100, 30, 10, and 3 nM using an Echo 550 (Labcyte). Positive control compound and DMSO as a negative control were dispensed into the first and last well, respectively. Each well was backfilled with DMSO to a final volume of 200 nL, resulting in final assay DMSO concentrations of 1%. […] The data were analyzed using Graphpad Prism/Dotmatics Studies Software. Assays conducted in technical replicate and repeated as a biological duplicate.

[1] = biological target: recombinant doubly mutated EGFR L858R, T790M kinase domain (mLT-EGFR) (Homo sapiens, UniProt P00533, L858R/T790M); test: Kinetic analysis (AssayQuant); format: biochemical; settings: for Ki: read-out: KI app
Protocol: Measurement of K I, K inact and K inact/K I was carried out by AssayQuant Technologies inc.

[2] = tested on: BAF EGFR L858R/C775S cells; settings: BAF EGFR cell line; published compound, reference number not given; cited from earlier work
BAF EGFR L858R cells = settings: BAF EGFR cell line; published compound, reference number not given; cited from earlier work
[3] = tested on: EGFR phosphorylation (Tyr1068) in H1975 (L858R, T790M) cells; test: Western blot of EGFR phosphorylation; format: cell-based
Protocol: Cells, seeded on the previous day, were incubated with test compound at the indicated concentrations or DMSO (0.1%) for 4 h. […] Preparation of lysates and Western blotting was performed twice as independent experiments.
Samples were prepared by diluting lysates in PBS to the desired concentration and before adding 4X XT sample buffer. Samples were then denatured at 98 °C for 5 min and then centrifuged to remove the residue. […] The quality of transfer was assessed using Ponceau S Stain (Sigma-Aldrich Cat. No. p7170).
Loading control antibodies were prepared in 5% milk w/v with 1× TBS/T (0.1 v/v) solution at a determined optimum concentration.
Proteins were detected using Clarity ECL substrate (Bio-Rad) and imaged using a Licor Odyssey FC.

EGFR = test: Time-course of EGFR modification by mass spectrometry; format: binding; settings: within 10 min
Protocol: Peptides were detected in positive ion mode using electrospray ionization with nebulizer pressure of 35 psi, drying gas flow of 13 L/min and source gas temperature of 290 °C. Sheath gas temperature of 275 °C and gas flow of 12 L/min, capillary voltage of 4000 V and nozzle voltage of 300 V were also applied. Mass spectra were acquired using MassHunter Acquisition software (version B.08.00) over 100–1700 m/z range, at a rate of 5 spectra/s and 200 ms/spectrum, using standard mass range mode (3200 m/z) with extended dynamic range (2 GHz) and collection of both centroid and profile data. MS/MS fragmentation spectra were acquired over 100–3000 m/z range, at a rate of 3 spectra/s and 333.3 ms/spectrum. Acquired MS and MS/MS spectra were analyzed using Agilent MassHunter BioConfirm software (version B.10.00) against known amino acid sequences for EGFR for confirmation of covalent binding at Cys775. For the time course study, 150 μL EGFR (0.15 mg/mL) was incubated with compound 25328 to final concentration of 15 μM in a buffer solution of 20 mM Tris pH 8, 150 mM NaCl, 4% glycerol, 1 mM TCEP, 1% DMSO. […] Intact protein analysis perform as detailed above.

[4] = tested on: EGFR phosphorylation (Tyr1068) in H1975 (L858R, T790M) cells; test: HTRF cellular EGFR phosphorylation; format: cell-based; settings: Homo sapiens, NCI-H1975; read-out: pEGFR IC50 by HTRF
Protocol: Cells were plated at 20,000 cells per well in 96-well plates and placed at 37 °C with 5% CO2. Compounds were reconstituted in DMSO. Once adhered (after 24 h), cells were treated with compounds at a final concentration of 0.1% DMSO in media. Compounds were added to duplicate wells and incubated 37 °C for 3 h with 5% CO2. For A431 cells 0.5 h before the end of incubation; 100 ng/mL of EGF (Thermo Fisher, Cat. No. PHG0311) was added to all compound-treated cells as well as control. Compound and media were removed from the cells, and then 50 μL of HTRF lysis buffer was added (lysis buffer was diluted from 4× stock to 1× in deionized (DI) water, with 1% blocking agent also added). Cells were lysed on a plate shaker (2000 rpm) for 30 min at room temperature. pEGFR expression was assessed using the Human Phospho-EGFR (Tyr1068) cellular detection kit (Revvity, Cat. No. 64EG1PEH). Total EGFR expression was monitored using the Human Total EGFR cellular detection kit (Revvity, Cat. No. 64NG1PEH) as per the manufacturer’s instructions. […] Results were calculated as the ratio of pEGFR/total EGFR and then the percentage of 0 μM control.

[5] = TR-FRET, n > 3, read-out: WT-EGFR IC50
[6] = TR-FRET, n > 3, read-out: WT-EGFR pIC50 ± std dev (converted)
[7] = supplementary csv, read-out: WT pIC50 (converted)
[8] = TR-FRET, read-out: WT-EGFR IC50

## C=CC(=O)Nc1cccc(-c2nn(C)c3ncnc(N)c23)c1 [Compound S1]
mLTC-EGFR
  Protein adduct formation: 1

## C=CC(=O)NCc1cccc(-c2nn(C)c3ncnc(N)c23)c1 [Compound S3]
mLTC-EGFR
  Protein adduct formation: 0

## C#CC(=O)Nc1cccc(-c2nn(C)c3ncnc(N)c23)c1 [Compound S2]
mLTC-EGFR
  Protein adduct formation: 1-3

## C#Cc1cc(=O)n(-c2ccccc2)c2nc(Nc3ccc(N4CCN(C)CC4)cc3OC)ncc12 [Compound 8, 5-Ethynyl-2-(2-methoxy-4-(4-methylpiperazine-1-ylphenyl)amino)-8-phenylpyrido[2,3-d]pyrimidin-7(8H)-one]
wild-type EGFR (WT-EGFR); [5]
  IC50: 100 nM
wild-type EGFR (WT-EGFR); [6]
  IC50: 100 nM
wild-type EGFR (WT-EGFR); [7]
  IC50: 100 nM

## C#Cc1cc(=O)n(-c2ccccc2)c2nc(Nc3ccc(N4CCOCC4)cc3OC)ncc12 [Compound 5, 5-Ethynyl-2-((2-methoxy-4-morpholinophenyl)amino)-8-phenylpyrido[2,3-d]pyrimidin-7(8H)-one]
wild-type EGFR (WT-EGFR); [5]
  IC50: 57 nM
wild-type EGFR (WT-EGFR); [6]
  IC50: 63.1 nM

## C=CC(=O)NCCOc1ccc(-c2nn(C)c3ncnc(N)c23)cc1 [Compound S7]
mLTC-EGFR
  Protein adduct formation: 0

## C#Cc1cc(=O)n(-c2ccccc2)c2nc(Nc3ccc(N4CCOCC4)cc3)ncc12 [Compound 6, 5-Ethynyl-2-((4-morpholinophenyl)amino)-8-phenylpyrido[2,3-d]pyrimidin-7(8H)-one]
[1]
  kinact: 0.0061 ± 0.00035 s⁻¹
  kinact/KI: 3.7e+08 ± 3.8e+06 M⁻¹ s⁻¹
  Ki: 16 ± 1.1 nM
wild-type EGFR (WT-EGFR); [5]
  IC50: 69 nM
wild-type EGFR (WT-EGFR); [6]
  IC50: 63.1 nM

## C#Cc1cc(=O)n(-c2ccccc2)c2nc(Nc3ccc(N(C)C(=O)COC)cc3OC)ncc12 [Compound 10, N-(4-((5-Ethynyl-7-oxo-8-phenyl-7,8-dihydropyrido[2,3-d]pyrimidin-2-yl)amino)-3-methoxyphenyl)-2-methoxy-N-methylacetamide]
[1]
  kinact: 0.0035 ± 0.00072 s⁻¹
  kinact/KI: 1.8e+07 ± 480000 M⁻¹ s⁻¹
  Ki: 200 ± 45 nM
wild-type EGFR (WT-EGFR); [5]
  IC50: 3300 nM
wild-type EGFR (WT-EGFR); [6]
  IC50: 3160 nM

## C=CC(=O)Nc1cc(C(=O)Nc2nc3cccc(Cl)c3n2[C@@H]2CCCCN(C(=O)C=C)C2)cs1 [dual C775–C797 inhibitor]
[2]
  GI50: 20 nM
BAF EGFR L858R cells
  GI50: 10 nM

## C=CC(=O)NCc1cc(=O)n(-c2ccccc2)c2nc(Nc3ccccc3OC)ncc12 [Compound S4]
mLTC-EGFR
  Protein adduct formation: 0

## C#CC(=O)Nc1ccccc1Oc1ccc(-c2nn(C)c3ncnc(N)c23)cc1 [Compound S9]
mLTC-EGFR
  Protein adduct formation: 1-4

## C#Cc1cc(=O)n(-c2ccccc2)c2nc(Nc3ccc(N(C)C(=O)CCOC)cc3OC)ncc12 [Compound 11, N-(4-((5-Ethynyl-7-oxo-8-phenyl-7,8-dihydropyrido[2,3-d]pyrimidin-2-yl)amino)-3-methoxyphenyl)-3-methoxy-N-methylpropanamide]
wild-type EGFR (WT-EGFR); [5]
  IC50: 4100 nM
wild-type EGFR (WT-EGFR); [6]
  IC50: 3160 nM

## C#Cc1cc(-c2cnn3ccccc23)nc(Nc2ccccc2)n1 [Compound 2, 4-Ethynyl-N-phenyl-6-(pyrazolo[1,5-a]pyridin-3-yl)pyrimidin-2-amine]
mLTC-EGFR
  covalent adduct formation, in words: addition of a single adduct by mass spectrometry and a small amount of double adduct
wild-type EGFR (WT-EGFR); [8]
  IC50: 48000 ± 16000 nM
wild-type EGFR (WT-EGFR); [7]
  IC50: 50100 nM

## CC#Cc1cc(=O)n(-c2ccccc2)c2nc(Nc3ccccc3OC)ncc12 [Compound S12]
mLTC-EGFR
  covalent adduct formation, in words: little to no modification
wild-type EGFR (WT-EGFR); [6]
  IC50: > 100000 nM
wild-type EGFR (WT-EGFR); [8]
  IC50: > 100000 nM

## C=CC(=O)Nc1cc(Nc2nccc(-c3cn(C)c4ccccc34)n2)c(OC)cc1N(C)CCN(C)C [osimertinib, reference compound]
[3]; H1975, 4 h exposure, concentration series
  inhibition of EGFR and ERK1/2 phosphorylation (Western blot): inhibition of EGFR and ERK1/2 phosphorylation was evident

## C#Cc1cc(=O)n(-c2ccccc2)c2nc(Nc3ccc(N(C)C(=O)CN(C)C)cc3OC)ncc12 [Compound 12, 2-(Dimethylamino)-N-(4-((5-ethynyl-7-oxo-8-phenyl-7,8-dihydropyrido[2,3-d]pyrimidin-2-yl)amino)-3-methoxyphenyl)-N-methylacetamide]
[1]
  kinact: 0.0051 ± 0.00061 s⁻¹
  kinact/KI: 3.3e+07 ± 440000 M⁻¹ s⁻¹
  Ki: 160 ± 20 nM
wild-type EGFR (WT-EGFR); [5]
  IC50: 5100 nM
wild-type EGFR (WT-EGFR); [6]
  IC50: 5010 nM

## C#Cc1cc(=O)n(-c2ccccc2)c2nc(Nc3ccccc3OC)ncc12 [Compound 3, 5-Ethynyl-2-[(2-methoxyphenyl)amino]-8-phenylpyrido[2,3-d]pyrimidin-7-one]
EGFR
  protein modified: Over 50%
[4]
  IC50: > 3000 nM
[3]; H1975, 10 μM, 4 h
  inhibition of pEGFR (Western blot): showed inhibition of pEGFR

## C#Cc1cc(=O)n(-c2ccccc2)c2nc(Nc3ccc(N4CCN(C)CC4)cc3)ncc12 [Compound 9, 5-Ethynyl-2-((4-(4-methylpiperazin-1-yl)phenyl)amino)-8-phenylpyrido[2,3-d]pyrimidin-7(8H)-one]
[1]
  kinact: 0.02 ± 0.0041 s⁻¹
  kinact/KI: 8.2e+08 ± 8.3e+06 M⁻¹ s⁻¹
  Ki: 24 ± 5.2 nM
wild-type EGFR (WT-EGFR); [5]
  IC50: 77 nM
wild-type EGFR (WT-EGFR); [6]
  IC50: 79.4 nM

## C=Cc1cc(=O)n(-c2ccccc2)c2nc(Nc3ccccc3OC)ncc12 [Compound S11]
mLTC-EGFR
  covalent adduct formation, in words: reduced protein modulation
wild-type EGFR (WT-EGFR); [6]
  IC50: > 100000 nM
wild-type EGFR (WT-EGFR); [8]
  IC50: > 100000 nM

## COc1ccccc1Nc1ncc2ccc(=O)n(-c3ccccc3)c2n1 [Compound S10]
wild-type EGFR (WT-EGFR); [6]
  IC50: 15800 nM
wild-type EGFR (WT-EGFR); [8]
  IC50: 15000 nM

## C=CC(=O)Nc1ccccc1Oc1ccc(-c2nn(C)c3ncnc(N)c23)cc1 [Compound S8]
mLTC-EGFR
  Protein adduct formation: 0-1

## C#CC(=O)NCc1cc(=O)n(-c2ccccc2)c2nc(Nc3ccccc3OC)ncc12 [Compound S5]
mLTC-EGFR
  Protein adduct formation: 1-2
